The results in this text go back to US12358915B2, “METTL3 inhibitory compounds” (STORM THERAPEUTICS LTD., priority 2019, dated 2025).

Where two headings read alike, the source gives them in different places.

The target of one assay is T1, METTL3/14 (Homo sapiens, UniProt Q86U44).
T1 construct: The enzyme used was full-length his-tagged METTL3; His; made in house
Put plainly: METTL3/14 methyltransferase assay (METTL3_14 RFMS, RapidFire mass spectrometry).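 Further: recombinant His-tagged METTL3 with FLAG-tagged METTL14 from baculovirus, SAH product quantified by mass spectrometry against isotope-labelled internal standards, 60 min at room temperature, scaled between no-RNA and DMSO-only wells.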 The format is biochemical. Conditions: read-out: METTL3_14 RFMS IC50.

The next assay deals with MOLM-13 cells. Put plainly: MOLM13 CTG - analysis of cell proliferation (Cell Titre Glo). Type of assay: cell-based. Particulars: Homo sapiens, geometric mean, read-out: CTG MOLM13 cells IC50 GEOMEAN.
[1] abbreviates: 5 nM METTL3/14, 0.2 μM RNA substrate, 0.5 μM SAM, lower limit of the assay IC50=5 nM, Compounds 63-265.
[2] abbreviates: 5 nM METTL3/14, 0.2 μM RNA substrate, 0.5 μM SAM, lower limit of the assay IC50=5 nM, Compounds 266-351.

T1 sequence (Q86U44 whole entry): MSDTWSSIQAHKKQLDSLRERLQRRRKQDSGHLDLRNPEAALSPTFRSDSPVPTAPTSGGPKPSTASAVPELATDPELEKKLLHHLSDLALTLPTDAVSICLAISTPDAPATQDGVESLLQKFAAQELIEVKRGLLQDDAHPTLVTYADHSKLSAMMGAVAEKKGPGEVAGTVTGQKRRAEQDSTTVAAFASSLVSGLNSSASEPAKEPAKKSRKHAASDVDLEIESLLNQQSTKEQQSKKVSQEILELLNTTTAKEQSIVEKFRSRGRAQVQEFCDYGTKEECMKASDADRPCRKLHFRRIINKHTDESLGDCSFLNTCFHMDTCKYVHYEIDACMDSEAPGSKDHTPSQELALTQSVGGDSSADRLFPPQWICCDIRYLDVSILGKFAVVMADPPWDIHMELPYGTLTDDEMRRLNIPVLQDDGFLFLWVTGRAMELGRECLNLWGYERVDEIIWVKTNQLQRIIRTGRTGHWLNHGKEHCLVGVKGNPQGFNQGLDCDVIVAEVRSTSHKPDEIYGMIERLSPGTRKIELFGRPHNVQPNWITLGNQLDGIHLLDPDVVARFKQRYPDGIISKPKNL
T1 sequence (Q9HCE5 whole entry partner): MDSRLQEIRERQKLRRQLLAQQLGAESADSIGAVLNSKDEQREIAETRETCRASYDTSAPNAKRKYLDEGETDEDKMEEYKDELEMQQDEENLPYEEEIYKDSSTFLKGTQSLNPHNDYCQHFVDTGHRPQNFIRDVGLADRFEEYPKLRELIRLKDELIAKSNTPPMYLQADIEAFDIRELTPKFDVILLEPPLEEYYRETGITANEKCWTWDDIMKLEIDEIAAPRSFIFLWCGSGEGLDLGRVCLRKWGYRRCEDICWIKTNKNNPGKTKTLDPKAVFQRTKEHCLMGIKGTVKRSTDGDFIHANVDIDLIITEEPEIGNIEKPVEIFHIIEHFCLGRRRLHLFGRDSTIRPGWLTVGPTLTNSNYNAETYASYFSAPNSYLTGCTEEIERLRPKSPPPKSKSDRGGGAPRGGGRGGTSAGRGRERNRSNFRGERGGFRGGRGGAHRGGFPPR
Method for MOLM-13 cells: MOLM-13 or MOLM-14 cells were plated, in suspension, in 24 well tissue culture plates at final concentration of 200,000/ml, with or without 50 ng/ml IFNγ. […] Cells were incubated for 4 days at 37° C. at which point 600 μl of cell suspension was removed for Mass spectrometry analysis of m6A. 600 μl of fresh media containing the appropriate concentration of METTL3 inhibitor/IFNγ was added to remaining cell suspensions. Cells where then cultured for a further 7 days, cell suspension was sampled for analysis of proliferation and Cell surface markers periodically.
At regular time points (4, 5, 6 &7) days cells were mixed to maintain a homogenous cell suspension. 25 μl of this cell suspension was removed and added to a white 384 well plate, 25 μl of Cell Titre Glo reagent (Promega) was added, and incubated for 10 mins at room temperature before measurement of luminescence intensity, as per the manufacturers instructions.

One may read the IC50 as the concentration that inhibits the measured activity by half. On to `O=C(NCc1cn2cc(CNCC3(F)CCC3)ccc2n1)c1cc(=O)n2ccccc2n1` [Compound 206, N-{[6-({[(1-fluorocyclobutyl)methyl]amino}methyl)imidazo [1,2-a]pyridin-2-yl]methyl}-4-oxo-4H-pyrido [1,2-a]pyrimidine-2-carboxamide], for which the IC50 at METTL3/14 (setting [1]) worked out at 0.0156 µM; with MOLM-13 cells, 9.13 µM.
As for `O=C(NCc1cn2cc(CNCC3(O)CCC3)ccc2n1)c1cc(=O)n2ccccc2n1` [Compound 288, N-[[6-[[(1-hydroxycyclobutyl)methylamino]methyl]imidazo[1,2-a]pyridin-2-yl]methyl]-4-oxo-pyrido[1,2-a]pyrimidine-2-carboxamide], the IC50 was determined as 0.0139 µM at METTL3/14 (setting [2]) and 7.32 µM in the assay on MOLM-13 cells.
Turning to `COC(C)(C)CNCc1ccc2nc(CNC(=O)c3cc(=O)n4ccccc4n3)cn2c1` [Compound 281, N-[[6-[[(2-methoxy-2-methyl-propyl)amino]methyl]imidazo[1,2-a]pyridin-2-yl]methyl]-4-oxo-pyrido[1,2-a]pyrimidine-2-carboxamide], the results for the IC50 on METTL3/14 (setting [2]) and in the assay on MOLM-13 cells were 0.0987 µM and at least 30 µM, respectively.
For `O=C(NCc1cn2cc(CNCC34CC(C(F)(F)F)(C3)C4)ccc2n1)c1cc(=O)n2ccccc2n1` [Compound 87, 4-oxo-N-({6-[({[3-(trifluoromethyl)bicyclo[1.1.1]pentan-1-yl]methyl}amino)methyl]imidazo[1,2-a]pyridin-2-yl}methyl)-4H-pyrido [1,2-a]pyrimidine-2-carboxamide], the IC50 on METTL3/14 was 0.0485 µM; with MOLM-13 cells it was at least 30 µM.
Take `O=C(NCc1cn2cc(CNCCC3CC3)ccc2n1)c1cc(=O)n2ccccc2n1` [Compound 103, N-[(6-{[(2-cyclopropylethyl)amino]methyl}imidazo[1,2-a]pyridin-2-yl)methyl]-4-oxo-4H-pyrido[1,2-a]pyrimidine-2-carboxamide]: the IC50 stood at 0.0137 µM at METTL3/14 (setting [1]) and 6.8 µM in the assay on MOLM-13 cells.
Take `Oc1cc(-c2cn(Cc3cn4cc(CNCC5CCC5)ccc4n3)nn2)c2cn[nH]c2c1` [Example 266, 4-[1-[[6-[(cyclobutylmethylamino)methyl]imidazo[1,2-a]pyridin-2-yl]methyl]triazol-4-yl]-1H-indazol-6-ol]: the IC50 on METTL3/14 was at most 0.00423 µM; in the assay on MOLM-13 cells, 11.1 µM.
For the molecule `O=C(NCc1cn2cc(CNCC3(O)CCCC3)ccc2n1)c1cc(=O)n2ccccc2n1` [Compound 284, N-[[6-[[(1-hydroxycyclopentyl)methylamino]methyl]imidazo[1,2-a]pyridin-2-yl]methyl]-4-oxo-pyrido[1,2-a]pyrimidine-2-carboxamide], the IC50 at METTL3/14 (setting [2]) was 0.0115 µM; in the assay on MOLM-13 cells, 7.4 µM.
For `O=C(NCc1cn2cc(CN[C@@H]3C[C@H]3C(F)(F)F)ccc2n1)c1cc(=O)n2ccccc2n1` [Compound 112, 4-oxo-N-{[6-({[(1R,2R)-2-(trifluoromethyl)cyclopropyl]amino}methyl)imidazo[1,2-a]pyridin-2-yl]methyl}-4H-pyrido[1,2-a] pyrimidine-2-carboxamide], the IC50 on METTL3/14 (setting [1]) amounted to 0.755 µM; with MOLM-13 cells, 12.7 µM.
Turning to `Fc1cc(-c2cn(Cc3cn4cc(CNCC5CCC5)ccc4n3)nn2)c2cn[nH]c2c1` [Example 318, N-(cyclobutylmethyl)-1-[2-[[4-(6-fluoro-1H-indazol-4-yl)triazol-1-yl]methyl]imidazo[1,2-a]pyridin-6-yl]methanamine], the IC50 was determined as 0.00567 µM on METTL3/14 (setting [2]) and 1.18 µM in the assay on MOLM-13 cells.
Consider `O=C(NCc1cn2cc(CCNC3CCCCC3)ccc2n1)c1cc(=O)n2ccccc2n1` [Compound 236, N-({6-[2-(cyclohexylamino)ethyl]imidazo[1,2-a]pyridin-2-yl}methyl)-4-oxo-4H-pyrido[1,2-a]pyrimidine-2-carboxamide], for which the IC50 was 0.0287 µM on METTL3/14 (setting [1]) and 11.8 µM with MOLM-13 cells.
